Data as given in US5043450A, “8-alkoxyquinolonecarboxylic acid and salts thereof” (priority 1986, dated 1991).
Converted amounts (≈) assume the structure as drawn.

Columns and labels:
Type in all cases: cell-based
[1] = test system: Bacilus subtilis PCI 219; test: Antibacterial spectra, MIC; settings: Bacillus subtilis, PCI219
[2] = test system: Propionibacterium acens 11828; test: Antibacterial spectra, MIC
[3] = test system: P. maltophilia GIFU 2491; test: Antibacterial spectra, MIC; settings: Stenotrophomonas maltophilia, GIFU2491
[4] = test system: B. fragilis 25285; test: Antibacterial spectra, MIC; settings: Bacteroides fragilis
[5] = test system: Bacteroides fragilis GM 7000; test: Antibacterial spectra, MIC; settings: GM7000
[6] = test system: S. epidermidis IID 866; test: Antibacterial spectra, MIC; settings: Staphylococcus epidermidis, IID866
[7] = test system: Alcaligenes faecalis 0114002; test: Antibacterial spectra, MIC; settings: 10^6 cells/ml, Gram -, read-out: MIC
[8] = test system: P. aeruginosa IFO 12689; test: Antibacterial spectra, MIC; settings: Pseudomonas aeruginosa, IFO12689
[9] = test system: Peptostreptococcus anaerobius KYA 27337; test: Antibacterial spectra, MIC; settings: KYA27337
[10] = test system: Eubacterium lentum GAI 5242; test: Antibacterial spectra, MIC; settings: Eggerthella lenta, GAI5242
[11] = test system: Morganella morganii IID 602; test: Antibacterial spectra, MIC; settings: IID602
[12] = test system: P. cepacia GIFU 518; test: Antibacterial spectra, MIC; settings: Burkholderia cepacia, GIFU518; 10^6 cells/ml; Gram -; read-out: MIC
[13] = test system: S. pneumoniae IID 552; test: Antibacterial spectra, MIC; settings: Streptococcus pneumoniae, IID552
[14] = test system: Serratia marcescens IID 618; test: Antibacterial spectra, MIC; settings: IID618
[15] = test system: F. varium KYA 8501; test: Antibacterial spectra, MIC; settings: Fusobacterium varium, KYA8501
[16] = test system: Pst. micros UPI 5464-1; test: Antibacterial spectra, MIC; settings: Parvimonas micra, UPI54641
[17] = test system: Yersinia enterocolitica IID 981; test: Antibacterial spectra, MIC; settings: IID981
[18] = test system: S. aureus Smith; test: Antibacterial spectra, MIC; settings: Staphylococcus aureus
[19] = test system: P. mirabilis IID 994; test: Antibacterial spectra, MIC; settings: Proteus mirabilis, IID994
[20] = test system: Staphylococcus aureus 209 P; test: Antibacterial spectra, MIC
[21] = test system: E. coli ATCC 10536; test: Antibacterial spectra, MIC; settings: Escherichia coli, ATCC10536
[22] = test system: K. pneumoniae 1-220S; test: Antibacterial spectra, MIC; settings: Klebsiella pneumoniae, 1220S
[23] = test system: S. pyogenes IID 692; test: Antibacterial spectra, MIC; settings: Streptococcus pyogenes, IID692
[24] = test system: Klebsiella pneumoniae KY(GN)6445; test: Antibacterial spectra, MIC
[25] = test system: Salmonella enteritidis IID 604; test: Antibacterial spectra, MIC; settings: Salmonella enterica
[26] = test system: Escherichia coli NIHJ JC-2; test: Antibacterial spectra, MIC; settings: NIHJJC2
[27] = test system: Peptococcus magnus KY 017; test: Antibacterial spectra, MIC; settings: Finegoldia magna, KY017
[28] = test system: E. faecalis IID 682; test: Antibacterial spectra, MIC; settings: Enterococcus faecalis, IID682; 10^6 cells/ml; Gram +
Method: (§1) The antibacterial test was carried out according to the method designated by Japan Society of Chemotherapy.

[29] = test system: E. coli ML 4707; test: Antibacterial spectra, MIC; settings: Escherichia coli, ML4707; 10^6 cells/ml; Gram -
Method: as §1

[30] = test system: Streptococcus pyogenes (S-8); test: Antibacterial spectra, MIC; settings: 10^6 cells/ml, Gram +
Method: as §1

[31] = test system: Proteus vulgaris IFO 3167; test: Antibacterial spectra, MIC; settings: IFO3167, 10^6 cells/ml, Gram -
Method: as §1

[32] = test system: Shigella sonnei IID 969; test: Antibacterial spectra, MIC; settings: IID969, 10^6 cells/ml, Gram -
Method: as §1

[33] = test system: S. aureus IID 670 (Terajima); test: Antibacterial spectra, MIC; settings: Staphylococcus aureus, IID670
[34] = test system: Veillonella parvula KYA 10790; test: Antibacterial spectra, MIC; settings: KYA10790
[35] = test system: Fusobacterium mortiferum 4249; test: Antibacterial spectra, MIC
[36] = test system: B. distasonis 8503; test: Antibacterial spectra, MIC; settings: Parabacteroides distasonis
[37] = test system: Citrobacter freundii IID 976; test: Antibacterial spectra, MIC; settings: IID976
[38] = test system: C. ramosum; test: Antibacterial spectra, MIC; settings: Thomasclavelia ramosa
[39] = test system: B. thetaiotaomicron (0661); test: Antibacterial spectra, MIC; settings: Bacteroides thetaiotaomicron
[40] = test system: B. fragilis 0558; test: Antibacterial spectra, MIC; settings: Bacteroides fragilis
[41] = test system: P. aeruginosa IID 1210; test: Antibacterial spectra, MIC; settings: Pseudomonas aeruginosa, IID1210; 10^6 cells/ml; Gram -; read-out: MIC
[42] = test system: C. perfringens KYA 13123; test: microbe, parasite or virus in culture; settings: Clostridium perfringens, KYA13123
[43] = test system: Acinetobacter anitratus IID 876; test: Antibacterial spectra, MIC; settings: Acinetobacter calcoaceticus, IID876
[44] = test system: B. vulgatus KYA 29327; test: Antibacterial spectra, MIC; settings: Phocaeicola vulgatus, KYA29327
[45] = test system: F. necrophorum S-45; test: Antibacterial spectra, MIC; settings: Fusobacterium necrophorum, S45
[46] = test system: Pseudomonas aeruginosa V-1; test: Antibacterial spectra, MIC; settings: V1
[47] = test system: Enterobacter cloacae IID 977; test: Antibacterial spectra, MIC; settings: IID977

## CNCC1CCN(c2c(F)cc3c(=O)c(C(=O)O)cn(C4CC4)c3c2OC)C1 (centres unmarked) [Exp. 8, 1-cyclopropyl-6-fluoro-1,4-dihydro-8-methoxy-7-(3-methylaminomethyl-1-pyrrolidinyl)-4-oxo-3-quinolinecarboxylic acid]
[1]
  MIC: 0.025 µg/mL (≈ 0.0642 µM)
[2]
  MIC: 0.78 µg/mL (≈ 2 µM)
[3]
  MIC: 0.39 µg/mL (≈ 1 µM)
[4]
  MIC: 0.39 µg/mL (≈ 1 µM)
[5]
  MIC: 0.39 µg/mL (≈ 1 µM)
[6]
  MIC: 0.05 µg/mL (≈ 0.128 µM)
[7]
  MIC: 1.56 µg/mL (≈ 4.01 µM)
[8]
  MIC: 3.13 µg/mL (≈ 8.04 µM)
[9]
  MIC: 0.2 µg/mL (≈ 0.514 µM)
[10]
  MIC: 0.2 µg/mL (≈ 0.514 µM)
[11]
  MIC: 0.39 µg/mL (≈ 1 µM)
[12]
  MIC: 1.56 µg/mL (≈ 4.01 µM)
[13]
  MIC: 0.05 µg/mL (≈ 0.128 µM)
[14]
  MIC: 0.2 µg/mL (≈ 0.514 µM)
[15]
  MIC: 3.13 µg/mL (≈ 8.04 µM)
[16]
  MIC: 0.39 µg/mL (≈ 1 µM)
[17]
  MIC: 0.1 µg/mL (≈ 0.257 µM)
[18]
  MIC: 0.05 µg/mL (≈ 0.128 µM)
[19]
  MIC: 0.05 µg/mL (≈ 0.128 µM)
[20]
  MIC: 0.05 µg/mL (≈ 0.128 µM)
[21]
  MIC: 0.05 µg/mL (≈ 0.128 µM)
[22]
  MIC: 0.1 µg/mL (≈ 0.257 µM)
[23]
  MIC: 0.05 µg/mL (≈ 0.128 µM)
[24]
  MIC: 0.05 µg/mL (≈ 0.128 µM)
[25]
  MIC: 0.1 µg/mL (≈ 0.257 µM)
[26]
  MIC: 0.025 µg/mL (≈ 0.0642 µM)
[27]
  MIC: ≤ 0.05 µg/mL
[28]
  MIC: 0.05 µg/mL
[29]
  MIC: 0.05 µg/mL (≈ 0.128 µM)
[30]
  MIC: 0.05 µg/mL
[31]
  MIC: 0.05 µg/mL (≈ 0.128 µM)
[32]
  MIC: 0.05 µg/mL (≈ 0.128 µM)
[33]
  MIC: 0.05 µg/mL (≈ 0.128 µM)
[34]
  MIC: 0.39 µg/mL (≈ 1 µM)
[35]
  MIC: 0.39 µg/mL (≈ 1 µM)
[36]
  MIC: 3.13 µg/mL (≈ 8.04 µM)
[37]
  MIC: 0.05 µg/mL (≈ 0.128 µM)
[38]
  MIC: 0.39 µg/mL (≈ 1 µM)
[39]
  MIC: 3.13 µg/mL (≈ 8.04 µM)
[40]
  MIC: 0.39 µg/mL (≈ 1 µM)
[41]
  MIC: 12.5 µg/mL (≈ 32.1 µM)
[42]
  MIC: 0.2 µg/mL (≈ 0.514 µM)
[43]
  MIC: 0.2 µg/mL (≈ 0.514 µM)
[44]
  MIC: 3.13 µg/mL (≈ 8.04 µM)
[45]
  MIC: 0.39 µg/mL (≈ 1 µM)
[46]
  MIC: 0.78 µg/mL (≈ 2 µM)
[47]
  MIC: 0.2 µg/mL (≈ 0.514 µM)
